Key:
rat ASIC3 = target: T1, rat ASIC3 (Rattus norvegicus, UniProt O35240); assay: Whole-cell patch clamp of acid-induced peak inward currents in HEK293 transfected with rat ASIC3; assay type: cell-based; details: for inhibitory effect on acid-induced peak inward currents, rASIC3: HEK293, voltage clamp, increasing concentrations; for potency as antagonist compared to amiloride, rASIC3: full dose-inhibition curves, HEK293
T1 construct: expressed in transfected cells; host or cells: HEK293
T1 sequence (O35240 1-533): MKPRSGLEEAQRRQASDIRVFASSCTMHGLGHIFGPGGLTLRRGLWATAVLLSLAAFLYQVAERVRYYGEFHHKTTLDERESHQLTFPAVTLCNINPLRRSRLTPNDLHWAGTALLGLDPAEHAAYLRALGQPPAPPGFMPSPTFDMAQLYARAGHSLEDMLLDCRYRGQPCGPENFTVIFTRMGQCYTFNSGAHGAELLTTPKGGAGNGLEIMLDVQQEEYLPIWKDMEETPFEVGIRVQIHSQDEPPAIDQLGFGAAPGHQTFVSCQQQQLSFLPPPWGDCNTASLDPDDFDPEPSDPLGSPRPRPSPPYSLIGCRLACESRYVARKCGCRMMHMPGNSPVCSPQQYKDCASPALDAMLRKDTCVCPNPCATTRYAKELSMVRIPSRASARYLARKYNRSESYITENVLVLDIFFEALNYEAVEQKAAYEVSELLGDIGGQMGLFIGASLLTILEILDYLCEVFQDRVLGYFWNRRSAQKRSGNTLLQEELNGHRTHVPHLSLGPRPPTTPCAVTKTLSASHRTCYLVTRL
Experimental: (§1) Another example of an in vitro assessment method consists of using mammalian heterologous expression systems, which are known to the skilled in the art, and include a variety of mammalian cell lines such as COS, HEK, e.g., HEK293 and/or CHO, cells. Cell lines are transfected with gated ion channel(s) and used to perform electrophysiology as follows:
(§2) All experiments are performed at room temperature (20-25° C.) in voltage clamp using conventional whole cell patch clamp methods (Neher, E., et al. (1978) Pfluegers Arch 375:219-228).
(§3) The amplifier used is the EPC-9 (HEKA-electronics, Lambrect, Germany) run by a Macintosh G3 computer via an ITC-16 interface. Experimental conditions are set with the Pulse-software accompanying the amplifier. Data is low pass filtered and sampled directly to hard-disk at a rate of 3 times the cut-off frequency.
(§4) Pipettes are pulled from borosilicate glass using a horizontal electrode puller (Zeitz-Instrumente, Augsburg, Germany). The pipette resistances are 2-3 MOhms in the salt solutions used in these experiments. The pipette electrode is a chloridized silver wire, and the reference is a silver chloride pellet electrode (In Vivo Metric, Healdsburg, USA) fixed to the experimental chamber. The electrodes are zeroed with the open pipette in the bath just prior to sealing.
(§5) Coverslips with the cells are transferred to a 15 μl experimental chamber mounted on the stage of an inverted microscope (IMT-2, Olympus) supplied with Nomarski optics. Cells are continuously superfused with extracellular saline at a rate of 2.5 ml/min. After giga-seal formation, the whole cell configuration is attained by suction. The cells are held at a holding voltage of −60 mV and at the start of each experiment the current is continuously measured for 45 s to ensure a stable baseline. Solutions of low pH (<7) are delivered to the chamber through a custom-made gravity-driven flowpipe, the tip of which is placed approximately 50 μm from the cell. Application is triggered when the tubing connected to the flowpipe is compressed by a valve controlled by the Pulse-software. Initially, low pH (in general, pH 6.5) is applied for 5 s every 60 s. The sample interval during application is 5501s. […] Current amplitudes are measured at the peak of the responses, and effect of the compounds is calculated as the amplitude at compound equilibrium divided by the amplitude of the current evoked by the pulse just before the compound was included. […]
(§6) HEK293 cells were transfected with rASIC1a or rASIC3 and were used to perform full dose-inhibition curves with Compound A, Compound H and amiloride. Results are expressed as a fraction of the control peak current obtained in the absence of the test substance.

rat ASIC1a = target: T2, rat ASIC1a (Rattus norvegicus, UniProt P55926); assay: Whole-cell patch clamp of acid-induced peak inward currents in HEK293 transfected with rat ASIC1a; assay type: cell-based; details: for inhibitory effect on acid-induced peak inward currents, rASIC1a: HEK293, voltage clamp, increasing concentrations; for potency as antagonist compared to amiloride, rASIC1a: full dose-inhibition curves, HEK293
T2 construct: expressed in transfected cells; host or cells: HEK293
T2 sequence (P55926 1-526): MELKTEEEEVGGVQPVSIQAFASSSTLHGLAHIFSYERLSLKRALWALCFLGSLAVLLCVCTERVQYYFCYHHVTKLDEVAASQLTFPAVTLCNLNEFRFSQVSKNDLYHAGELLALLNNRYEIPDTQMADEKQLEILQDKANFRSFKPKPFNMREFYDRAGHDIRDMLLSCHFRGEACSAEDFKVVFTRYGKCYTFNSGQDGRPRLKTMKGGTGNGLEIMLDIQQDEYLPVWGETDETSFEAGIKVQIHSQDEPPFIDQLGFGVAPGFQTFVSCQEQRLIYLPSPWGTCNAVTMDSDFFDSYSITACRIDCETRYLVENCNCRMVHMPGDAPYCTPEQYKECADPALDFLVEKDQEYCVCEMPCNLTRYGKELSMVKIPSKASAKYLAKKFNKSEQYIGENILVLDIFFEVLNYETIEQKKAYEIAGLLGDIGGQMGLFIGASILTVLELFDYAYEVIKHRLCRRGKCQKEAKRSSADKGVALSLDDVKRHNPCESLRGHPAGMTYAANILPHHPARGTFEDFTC
Experimental: as §1, §2, §3, §4, §5, §6

SMILES | inhibitory effect on acid-induced peak inward currents, rASIC3 (rat ASIC3) | potency as antagonist compared to amiloride, rASIC3 (rat ASIC3) | inhibitory effect on acid-induced peak inward currents, rASIC1a (rat ASIC1a) | potency as antagonist compared to amiloride, rASIC1a (rat ASIC1a)
COc1ccc(F)cc1-c1cc2c(c3c1CCN(C)C3)NC(=O)/C2=N/O [Compound A, 5-(5-fluoro-2-methoxyphenyl)-6,7,8,9-tetrahydro-3-(hydroxyimino)-8-methyl-1H-pyrrolo[3,2-h]isoquinoline-2(3H)-one] | dose-dependently inhibit | more potent antagonists as compared to amiloride | dose-dependently inhibit | more potent antagonists as compared to amiloride
CCN1CCc2c(-c3ccccc3)cc3c(c2C1)NC(=O)/C3=N/O [Compound H, 5-phenyl-6,7,8,9-tetrahydro-3-(hydroxyimino)-8-ethyl-1H-pyrrolo[3,2-h]isoquinoline-2(3H)-one] | dose-dependently inhibit | more potent antagonists as compared to amiloride | dose-dependently inhibit | more potent antagonists as compared to amiloride

Source: patent publication US7718641B2, “Pyrrolo [3,4-H] isoquinoline compounds and methods for modulating gated ion channels” (Aros Pharma ApS, priority 2005, dated 2010)
